Columns and labels:
IMQ psoriasis model = experiment: IMQ (imiquimod)-induced psoriasis model; format: in vivo, BALB/c mice; conditions: Mean ± SD, n = 7; for PASI Score d 6: Model 8.85 ± 1.66; for ΔSkin Thickness Change (μm) d 6: Model 80.95 ± 6.16
Method: Male BALB/c mice, aged 6-8 weeks, were randomly divided into 9 groups after 1 week of acclimatization: blank control group, imiquimod model group (IMQ group, corresponding to the model groups in FIGS. 1 and 2), clobetasol propionate cream group (CLO group), TYKI (BMS-986165) group, IRAK4 protein degrader KT-474 (from patent WO2020113233) group (100 mg/kg), and the compound of the present disclosure (at an appropriate dose), with 6-7 mice in each group. One day before modeling, the hair on the backs of the mice was removed with depilatory cream, with a depilated area of 2×2 cm^2. On the day of modeling, IMQ cream was used for modeling, and the corresponding drugs were administered intragastrically for treatment. The compound of the present disclosure (at an appropriate dose) was administered intragastrically once daily, and IMQ cream was applied to the hairless area on the back and left ear of mice 2 h after the first administration. […] The blank group and the IMQ group were administered with vehicle intragastrically twice daily (in the morning and evening), with an 8-h interval between the two intragastric administrations. At 2 h after the first intragastric administration, vaseline and IMQ cream were applied topically to the depilated back and ears of the mice, respectively. The dosage of IMQ cream administered to the depilated area on the back and the left ear was 80 mg and 10 mg, respectively, and the mice in each group were administered the cream for 5 consecutive days.
Reference was made to the Psoriasis Area and Severity Index (PASI) scoring criteria. The psoriasis, erythema, and thickness of skin lesions on the back were scored from 0 to 4 every morning from day 1 of modeling, with the scoring criteria as shown in Table 28. The 3 were added up to obtain a total score, i.e., a total PASI score. The ear thickness of the left ear of the mouse was measured using a digital vernier caliper three times every morning from day 1 of modeling, to obtain a mean value.

[1] = Metabolic stability in human liver microsome; format: in vitro ADME; conditions: NADPH, 60 min; for half-life at 1 µM: liver microsomes, read-out: Human liver microsome (t1/2, min)
Method: Clean incubation plates T60 and NCF60 were preheated at 37° C. for 10 min. Liver microsomes were diluted to a concentration of 0.56 mg/mL with 100 mM phosphate buffer, and 445 μL of the microsome working solution (0.56 mg/mL) was transferred to the preheated incubation plates T60 and NCF60, followed by incubation of the plates T60 and NCF60 with continuous shaking at 37° C. for 10 min. After incubation, 54 μL of liver microsomes were transferred to a blank plate, 6 μL of NAPDH cofactor was added to the blank plate, and then 180 μL of quenching solution was added to the blank plate. 5 μL of the compound working solution (100 μM) was added to the microsome-containing incubation plates T60 and NCF60, and mixed thoroughly 3 times. For plate NCF60, 50 μL of buffer was added and the system was mixed thoroughly 3 times before timing was started, and the plate was incubated with shaking at 37° C. for 60 min. For the quenching plate, 180 μL of quenching solution and 6 μL of NADPH cofactor were added, and the plate was ensured to be cooled to prevent evaporation. For the T60 plate, the mixture was thoroughly mixed 3 times, and 54 μL of the mixture was immediately transferred to the quenching plate at the time point of 0 min. Then 44 μL of the NAPDH cofactor was added to the incubation plate (T60). Timing was started, and the plate was incubated with shaking at 37° C. for 60 min. At the time points of 5, 15, 30, 45, and 60 min, 180 μL of the quenching solution was added to the quenching plate respectively, mixed once, and 60 μL of sample was continuously transferred from the plate T60 to the quenching plate at each time point. For plate NCF60, after mixing once, 60 μL of the sample was transferred from incubation plate NCF60 to the quenching plate containing quenching solution at the 60-min time point. All sampling plates were shaken for 10 min, then centrifuged at 4000 rpm at 4° C. for 20 min. 80 μL of the supernatant was transferred to 240 μL of HPLC water, and mixed using a plate shaker for 10 min. Each bioanalytical plate was sealed and shaken for 10 min before LC-MS/MS analysis.

IRAK4 = biological target: T1, IRAK4 (Homo sapiens, UniProt Q9NWZ3); experiment: IRAK4 protein degradation in THP1 cells (Western blot); format: cell-based; conditions: THP-1 cells, 24 h
T1 construct: Effect of the Compounds on IRAK4 Protein Degradation in THP1 Cells; endogenous in cells; host or cells: THP-1 cells
T1 sequence (Q9NWZ3 1-460): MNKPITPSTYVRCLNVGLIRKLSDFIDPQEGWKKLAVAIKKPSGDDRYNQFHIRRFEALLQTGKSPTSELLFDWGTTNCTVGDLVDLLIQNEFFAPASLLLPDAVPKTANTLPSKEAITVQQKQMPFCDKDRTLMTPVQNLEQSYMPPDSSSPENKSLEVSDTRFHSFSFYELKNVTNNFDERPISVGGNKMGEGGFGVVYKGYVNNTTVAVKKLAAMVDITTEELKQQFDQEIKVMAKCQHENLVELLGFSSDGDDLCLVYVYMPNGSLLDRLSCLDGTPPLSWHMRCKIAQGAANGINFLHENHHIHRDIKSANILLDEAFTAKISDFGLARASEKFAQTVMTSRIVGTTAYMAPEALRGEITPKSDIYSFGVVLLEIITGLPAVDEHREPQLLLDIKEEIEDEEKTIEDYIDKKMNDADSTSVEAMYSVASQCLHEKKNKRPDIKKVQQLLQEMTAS
Outline: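 THP-1 cells (2×10^5/well) were treated with 5-fold serial compound dilutions for 24 h at 37 °C, then lysed with proteasome/phosphatase inhibitors. IRAK4 was detected by Western blot with chemiluminescence and semi-quantified by densitometry. DC50 came from the concentration–response.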

[2] = test system: LPS/IL-1β-induced IL-6 secretion in human peripheral blood mononuclear cells (PBMCs); experiment: Inhibition of LPS/IL-1β-induced IL-6 secretion in human PBMCs (IL-6 ELISA); format: cell-based; conditions: PBMC, LPS 10 ng/mL + IL-1β 20 ng/mL, 24 h pre-incubation, 20 h stimulation
Outline: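 IC50 values come from fitted curves of IL-6 levels, determined by ELISA (OD450, standard curve) in supernatants diluted 200-fold. Human PBMCs received 5-fold serial compound dilutions (top 1 μM) for 24 h before a 20 h challenge with final 10 ng/mL LPS and 20 ng/mL IL-1β, 37 °C, 5% CO2.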

[3] = test system: R848-induced IL-6 secretion in human peripheral blood mononuclear cells (PBMCs); experiment: Inhibition of R848-induced IL-6 secretion in human PBMCs (IL-6 ELISA); format: cell-based; conditions: PBMC, R848 2.5 μg/mL, 20 h pre-incubation, 24 h stimulation
Method: This experiment was carried out in RPMI 1640 medium containing 10% FBS and 1% penicillin/streptomycin, with each of the compounds at an initial test concentration of 1 μM. The compound was dissolved in DMSO to prepare a stock solution, which was serially diluted into a series of working solutions with a 4-fold concentration gradient using the culture medium and then added to a 96-well plate at 10 μL per well. PBMCs (Batch No.: P122101102C; Milecell Biotechnology Inc.) were counted and diluted to a cell concentration of 1.25×10^6 cells/mL, and then added to the aforementioned compound-containing 96-well plate at 160 μL per well. The system was mixed well and incubated in a 5% CO2 incubator at 37° C. for 20 h. Then 10 μL of R848 (final concentration: 2.5 μg/mL) was added, and the culture was continued for 24 h in a 5% CO2 incubator at 37° C. After incubation, the 96-well plate was centrifuged at 2000 rpm for 4 min. The supernatant was collected and diluted 120-fold, then detected using an IL-6 ELISA kit. The OD450 values were read, and converted to IL-6 concentrations based on a standard curve.

Row | DC50 (IRAK4) [nM] | Molecule | IC50 [2] [nM] | IC50 [3] [nM] | other results
1 | 0.7 | CN(C)c1cc2nn([C@H]3CC[C@H](CN4CCC(n5cc6cc(F)c(C7CCC(=O)NC7=O)cc6n5)CC4)CC3)cc2cc1NC(=O)c1cnn2cccnc12 (stereo partly shown) [TM-6] | 1.15 | – | half-life at 1 µM [1]: 124 min
2 | 3.58 | CN(C)c1cc2nn(C3CCN(C[C@H]4CC[C@H](n5cc6cc(C7CCC(=O)NC7=O)c(F)cc6n5)CC4)CC3)cc2cc1NC(=O)c1cnn2cccnc12 (stereo partly shown) [TM-8] | 0.84 | – | Human liver microsome (t1/2, min) [1]: 145 min
3 | 1.17 | CN(C)c1cc2nn([C@H]3CC[C@H](CN4CC[C@@H](n5cc6cc(C7CCC(=O)NC7=O)ccc6n5)[C@H](F)C4)CC3)cc2cc1NC(=O)c1cnn2cccnc12 (stereo partly shown) [TM-167] | – | 4.3 | –
4 | 3.22 | CN(C)c1cc2nn([C@H]3CC[C@H](CN4CCC(c5nc6cc(N7CCC(=O)NC7=O)ccc6o5)CC4)CC3)cc2cc1NC(=O)c1cnn2cccnc12 [TM-185] | – | 8.82 | –
5 | 2.84 | CN(C)c1cc2nn([C@H]3CC[C@H](CN4CCC(n5cc6cc(NC7CCC(=O)NC7=O)ccc6n5)CC4)CC3)cc2cc1NC(=O)c1cnn2cccnc12 (stereo partly shown) [TM-196] | – | 2.94 | –
6 | 3.29 | CN(C)c1cc2nn([C@H]3CC[C@H](CN4CC[C@H](n5cc6ccc(N7CCC(=O)NC7=O)cc6n5)C4)CC3)cc2cc1NC(=O)c1cnn2cccnc12 [TM-197] | – | 4.93 | –
7 | 0.86 | CN(C)c1cc2nn([C@H]3CC[C@H](CN4CC[C@@H](n5cc6ccc(N7CCC(=O)NC7=O)cc6n5)C4)CC3)cc2cc1NC(=O)c1cnn2cccnc12 [TM-198] | – | 20.8 | –
8 | 0.87 | CN(C)c1cc2nn([C@H]3CC[C@H](CN4C[C@@H](n5cc6ccc(N7CCC(=O)NC7=O)cc6n5)[C@@H](F)C4)CC3)cc2cc1NC(=O)c1cnn2cccnc12 [TM-199] | – | 25.6 | –
9 | 0.95 | CN(C)c1cc2nn([C@H]3CC[C@H](CN4C[C@@H](F)[C@@H](n5cc6ccc(N7CCC(=O)NC7=O)cc6n5)C4)CC3)cc2cc1NC(=O)c1cnn2cccnc12 [TM-202] | – | 3.61 | –
10 | 3.77 | CN(C)c1cc2nn(C3CCC(CN4C[C@@H](F)[C@H](n5cc6cc(N7CCC(=O)NC7=O)ccc6n5)C4)CC3)cc2cc1NC(=O)c1cnn2cccnc12 (stereo partly shown) [TM-208] | – | 10.8 | –
11 | 3.23 | CN(C)c1cc2nn([C@H]3CC[C@H](CN4CCC[C@@H](n5cc6cc(N7CCC(=O)NC7=O)ccc6n5)C4)CC3)cc2cc1NC(=O)c1cnn2cccnc12 [TM-211] | – | 1.73 | –

The remaining lines, values behind:

Row | Molecule | DC50 (IRAK4) [nM] | IC50 [2] [nM] | IC50 [3] [nM] | other results
12 | CCC(=O)O[C@]1(C(=O)CCl)[C@@H](C)C[C@H]2[C@@H]3CCC4=CC(=O)C=C[C@]4(C)[C@@]3(F)[C@@H](O)C[C@@]21C [CLO, Clobetasol propionate, reference compound] | – | – | – | PASI Score d 6 (IMQ psoriasis model; 160 mg/animal): 1.17 ± 0.85; ΔSkin Thickness Change (μm) d 6 (IMQ psoriasis model; 160 mg/animal): −18.10 ± 6.33 μm
13 | CN(C)c1cc2nn([C@H]3CC[C@H](CN4CC[C@@H](n5cc6cc(C7CCC(=O)NC7=O)c(F)cc6n5)[C@H](F)C4)CC3)cc2cc1NC(=O)c1cnn2cccnc12 (stereo partly shown) [TM-133] | 1.6 | 3.55 | – | half-life at 1 µM [1]: 107 min
14 | CN(C)c1cc2nn([C@H]3CC[C@H](CN4CC[C@H](n5cc6cc(C7CCC(=O)NC7=O)c(F)cc6n5)[C@@H](F)C4)CC3)cc2cc1NC(=O)c1cnn2cccnc12 (stereo partly shown) [TM-134] | 3 | 2.59 | – | half-life at 1 µM [1]: 114 min
15 | CN(C)c1cc2nn([C@H]3CC[C@H](CN4CC[C@H](n5cc6cc(F)c(C7CCC(=O)NC7=O)cc6n5)[C@@H](F)C4)CC3)cc2cc1NC(=O)c1cnn2cccnc12 (stereo partly shown) [TM-138] | – | 6.96 | – | half-life at 1 µM [1]: 91 min
16 | CN(C)c1cc2nc([C@H]3CC[C@H](CN4C[C@@H](n5cc6cc(N7CCC(=O)NC7=O)ccc6n5)[C@@H](F)C4)CC3)cn2cc1NC(=O)c1cnn2cccnc12 [TM-230] | 1.42 | – | 6.97 | –
17 | CN(C)c1cc2nc([C@H]3CC[C@H](CN4CCC(n5cc6c(F)cc(N7CCC(=O)NC7=O)cc6n5)CC4)CC3)cn2cc1NC(=O)c1cnn2cccnc12 [TM-231] | < 1 | – | 11.6 | –
18 | CN(C)c1cc2nn([C@H]3CC[C@H](CN4C[C@@H](F)[C@H](n5cc6c(F)cc(C7CCC(=O)NC7=O)cc6n5)C4)CC3)cc2cc1NC(=O)c1cnn2cccnc12 (stereo partly shown) [TM-237] | – | 16.5 | 25 | –
19 | CN(C)c1cc2nn([C@H]3CC[C@H](CN4C[C@@H](F)[C@@H](n5cc6cc(N7CCC(=O)NC7=O)c(F)cc6n5)C4)CC3)cc2cc1NC(=O)c1cnn2cccnc12 [TM-239] | – | 7.31 | 10.4 | –
20 | CN(C)c1cc2nn([C@H]3CC[C@H](CN4C[C@H](F)[C@@H](n5cc6cc(C7CCC(=O)NC7=O)ccc6n5)C4)CC3)cc2cc1NC(=O)c1cnn2cccnc12 (stereo partly shown) [TM-243] | – | 3.96 | 7.67 | –
21 | Deucravacitinib [TYKi, reference compound] | – | – | – | PASI Score d 6 (IMQ psoriasis model; 30 mg/kg, BID): 4.32 ± 2.42; ΔSkin Thickness Change (μm) d 6 (IMQ psoriasis model; 30 mg/kg, BID): 53.57 ± 15.87 μm

Reference: patent US20260216348A1, “IRAK DEGRADATION AGENT AND USE THEREOF” (Increland, priority 2023, published 2026)
